The supplement of paper PMC11061612

How the values were obtained:
Experiment in all cases: combination Emax (second highest fraction inhibited in the dose matrix, 72 h); higher = more inhibition; extreme values may be limits of the assay
[1] = test system: OCI-AML5 (Acute Myeloid Leukemia)
Summary of the method: (§1)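 Bliss excess equals the observed combination effect minus the expected value EA + EB − EA·EB, where EA and EB are the effects of each agent alone. Combination Emax is the second-highest inhibition within the matrix. Inhibition was scaled from CellTiter-Glo 2.0 luminescence, with 0 set by vehicle wells and 1 by blank wells, after 72 hours of two-drug dosing of cells plated in 1536-well plates.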

[2] = test system: SK-MM-2 (Plasma Cell Myeloma)
Summary of the method: as §1

[3] = test system: LOUCY (T-Lymphoblastic Leukemia)
Summary of the method: as §1

[4] = test system: NCI-H810 (Non-Small Cell Lung Carcinoma)
Summary of the method: as §1

[5] = test system: SW684 (Other Solid Carcinomas)
Summary of the method: as §1

[6] = test system: NCI-H1755 (Lung Adenocarcinoma)
Summary of the method: as §1

[7] = test system: JHH-1 (Hepatocellular Carcinoma)
Summary of the method: as §1

RT4 (Bladder Carcinoma) = test system: RT4 (Bladder Carcinoma)
Summary of the method: as §1

[8] = test system: OV-90 (Ovarian Carcinoma)
Summary of the method: as §1

[9] = test system: LAMA-84 (Chronic Myelogenous Leukemia)
Summary of the method: as §1

[10] = test system: HSC-3 (Oral Cavity Carcinoma)
Summary of the method: as §1

[11] = test system: Caov-3 (Ovarian Carcinoma)
Summary of the method: as §1

[12] = test system: SJRH30 (Rhabdomyosarcoma)
Summary of the method: as §1

ES-2 (Ovarian Carcinoma) = test system: ES-2 (Ovarian Carcinoma)
Summary of the method: as §1

[13] = test system: Calu-6 (Non-Small Cell Lung Carcinoma)
Summary of the method: as §1

[14] = test system: FLO-1 (Esophageal Adenocarcinoma)
Summary of the method: as §1

[15] = test system: AsPC-1 (Pancreatic Carcinoma)
Summary of the method: as §1

[16] = test system: HTC-C3 (Thyroid Gland Carcinoma)
Summary of the method: as §1

[17] = test system: RPMI-8866 (Chronic Myelogenous Leukemia)
Summary of the method: as §1

786-0 (Kidney Carcinoma) = test system: 786-0 (Kidney Carcinoma)
Summary of the method: as §1

Compound	combination Emax [1]	combination Emax [2]	combination Emax [3]	combination Emax [4]	combination Emax [5]	combination Emax [6]	combination Emax [7]	combination Emax (RT4 (Bladder Carcinoma))	combination Emax [8]	combination Emax [9]	combination Emax [10]	combination Emax [11]	combination Emax [12]	combination Emax (ES-2 (Ovarian Carcinoma))	combination Emax [13]	combination Emax [14]	combination Emax [15]	combination Emax [16]	combination Emax [17]	combination Emax (786-0 (Kidney Carcinoma))
CCN(CCO)CCCOc1ccc2c(Nc3cc(CC(=O)Nc4cccc(F)c4)[nH]n3)ncnc2c1 [AZD2811] + O=C(c1cc(Cc2n[nH]c(=O)c3ccccc23)ccc1F)N1CCN(C(=O)C2CC2)CC1 [Olaparib] (first compound max 1 µM, 7x7, partner max 10 µM)	0.966	0.232	0.924	0.646	0.265	0.576	0.161	0.377	0.249	0.488	0.351	0.82	0.255	0.192	0.239	0.377	0.18	0.248	0.69	0.149
Cc1c2c(nn1C)CSCc1cc(n(C)n1)CSc1cc(c3ccccc3c1)OCCCc1c(C(=O)O)n(C)c3c-2c(Cl)ccc13 [AZD5991] + C[C@@H](Nc1cc(F)cc(F)c1)c1cc(C(=O)N(C)C)cc2c(=O)cc(N3CCOCC3)oc12 [AZD8186] (first compound max 1 µM, 7x7, partner max 3 µM)	1	0.271	0.47	0.3	0.454	0.418	0.462	0.286	0.214	0.12	0.536	0.374	0.588	0.264	0.222	0.48	0.235	0.277	0.592	0.374
CN(CCO)CC[C@H](CSc1ccccc1)Nc1ccc(S(=O)(=O)NC(=O)c2ccc(N3CCC([C@@H](O)c4ccccc4-c4ccc(Cl)cc4)CC3)cc2)cc1S(=O)(=O)C(F)(F)F [AZD4320] + CCN(CCO)CCCOc1ccc2c(Nc3cc(CC(=O)Nc4cccc(F)c4)[nH]n3)ncnc2c1 [AZD2811] (first compound max 1 µM, 7x7, partner max 1 µM)	1	1	1	0.894	0.158	0.43	0.82	1	0.743	0.906	0.664	0.94	0.503	0.168	0.801	0.699	0.541	0.347	0.952	0.166
CC1(C)CCC(CN2CCN(c3ccc(C(=O)NS(=O)(=O)c4ccc(NCC5CCOCC5)c([N+](=O)[O-])c4)c(Oc4cnc5[nH]ccc5c4)c3)CC2)=C(c2ccc(Cl)cc2)C1 [Venetoclax] + C1CN(CCC1(C(=O)N[C@@H](CCO)C2=CC=C(C=C2)Cl)N)C3=NC=NC4=C3C=CN4 [Capivasertib] (first compound max 1 µM, 7x7, partner max 3 µM)	0.958	1	1	0.113	0.392	0.648	0.115	0.0704	0.366	0.371	0.391	0.553	0.387	0.14	0.111	0.192	0.207	0.163	0.292	0.37
CC1(C)CCC(CN2CCN(c3ccc(C(=O)NS(=O)(=O)c4ccc(NCC5CCOCC5)c([N+](=O)[O-])c4)c(Oc4cnc5[nH]ccc5c4)c3)CC2)=C(c2ccc(Cl)cc2)C1 [Venetoclax] + C[C@@H]1COCCN1C2=NC(=NC(=C2)C3(CC3)[S@](=N)(=O)C)C4=C5C=CNC5=NC=C4 [AZD6738] (first compound max 1 µM, 7x7, partner max 10 µM)	1	1	1	0.577	0.48	0.828	0.609	0.612	0.533	0.975	0.548	0.794	0.864	0.789	0.801	0.559	0.264	0.674	0.958	0.712
COc1cccc2c1C(=O)c1c(O)c3c(c(O)c1C2=O)C[C@@](O)(C(=O)CO)C[C@@H]3O[C@H]1C[C@H](N)[C@H](O)[C@H](C)O1 [Doxorubicin] + Cc1cc2ncnn2cc1Nc1ncc2c(n1)n(C1CCOCC1)c(=O)n2C [AZD7648] (first compound max 1 µM, 7x7, partner max 10 µM)	0.988	0.371	0.943	0.756	0.556	0.776	0.353	0.867	0.569	0.822	0.702	0.826	0.925	0.76	0.516	0.927	0.267	0.427	0.996	0.82
